This note sets out measurements from patent publication US20250163038A1, “CBL-B MODULATORS AND USES THEREOF” (Nimbus Clio, Inc., priority 2021, published 2025).

The structures appear in SMILES notation. Some results are limits rather than exact numbers.

Assay [1] has as its target T1, Recombinant human c-Cbl (aa 47-435) (Homo sapiens, UniProt P22681).
T1 sequence (P22681 47-435): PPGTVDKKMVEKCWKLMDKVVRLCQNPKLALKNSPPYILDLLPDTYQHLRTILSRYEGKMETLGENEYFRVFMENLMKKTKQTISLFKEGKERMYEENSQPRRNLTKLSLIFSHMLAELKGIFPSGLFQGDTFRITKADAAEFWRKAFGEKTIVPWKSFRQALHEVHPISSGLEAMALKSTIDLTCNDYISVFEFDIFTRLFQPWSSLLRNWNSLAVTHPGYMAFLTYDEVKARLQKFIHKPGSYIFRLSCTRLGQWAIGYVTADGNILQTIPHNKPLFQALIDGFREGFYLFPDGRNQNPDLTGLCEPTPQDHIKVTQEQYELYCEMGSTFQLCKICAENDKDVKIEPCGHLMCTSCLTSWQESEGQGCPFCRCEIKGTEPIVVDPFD
The experiment in a line: c-Cbl Biochemical Assay (TR-FRET). Conditions: hc-Cbl Biochemical Assay (TR-FRET); read-out: TR-FRET hcCbl IC50. (Time-resolved FRET reads energy transfer from a long-lived donor to a nearby acceptor.)

For assay [2], the target named is Recombinant human Cbl-b (aa 36-427) (Homo sapiens, UniProt Q13191). As to the kind of experiment: Cbl-b Biochemical Assay (TR-FRET). Conditions: read-out: TR-FRET hCbl-b IC50.
Recombinant human Cbl-b (aa 36-427), sequence (Q13191 36-427): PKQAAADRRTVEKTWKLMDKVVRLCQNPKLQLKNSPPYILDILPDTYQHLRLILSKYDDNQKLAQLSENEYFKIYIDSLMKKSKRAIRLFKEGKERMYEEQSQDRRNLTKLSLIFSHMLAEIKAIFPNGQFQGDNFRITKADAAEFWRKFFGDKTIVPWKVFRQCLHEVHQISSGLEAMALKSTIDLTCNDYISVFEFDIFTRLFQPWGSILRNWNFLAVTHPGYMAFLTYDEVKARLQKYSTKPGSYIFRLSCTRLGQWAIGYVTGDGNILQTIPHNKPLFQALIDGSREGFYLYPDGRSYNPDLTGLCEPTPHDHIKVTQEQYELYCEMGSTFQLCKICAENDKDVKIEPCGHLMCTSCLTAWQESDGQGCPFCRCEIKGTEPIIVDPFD
Assay [3] deals with Jurkat (clone E6-1) cells with NFAT luciferase reporter. The experiment in a line: Jurkat reporter assay (NFAT Luciferase). In kind it is cell-based. Conditions: Homo sapiens; Jurkat NFAT luciferase reporter cells, anti-CD3 stimulation, 6 hr; read-out: Jurkat NFAT EC50. For orientation: In a reporter assay the amount or activity of a reporter protein is the signal.

As for `COc1cc(CNCCOC(C)C)cc2nc(-c3cccc(-c4ccc(F)cc4-c4nncn4C)c3)oc12` [GE-2, N-((2-(4′-Fluoro-2′-(4-methyl-4H-1,2,4-triazol-3-yl)-[1,1′-biphenyl]-3-yl)-7-methoxybenzo[d]oxazol-5-yl)methyl)-2-isopropoxyethan-1-amine, formic Acid], the half-inhibitory concentration (IC50) was 200 to 1000 nM in assay [1] and < 200 nM in assay [2]. For the same compound, the 50% effective concentration (EC50) in assay [3] lay in the range of 1000 to 10000 nM.
Taken in the same sequence, the figures for `COc1cc(CN[C@@H](C)C2CCC2)cc2nc(-c3cccc(-c4ccc(F)cc4-c4nncn4C)c3)oc12` [GF-2, (S)-1-Cyclobutyl-N-((2-(4′-fluoro-2′-(4-methyl-4H-1,2,4-triazol-3-yl)-[1,1′-biphenyl]-3-yl)-7-methoxybenzo[d]oxazol-5-yl)methyl)ethan-1-amine] were < 200 nM, < 200 nM and < 200 nM.
Take `COc1cc(CNCCC2CCC2)cc2nc(-c3cccc(-c4ccc(F)cc4-c4nncn4C)c3)oc12` [GG-2, 2-Cyclobutyl-N-((2-(4′-fluoro-2′-(4-methyl-4H-1,2,4-triazol-3-yl)-[1,1′-biphenyl]-3-yl)-7-methoxybenzo[d]oxazol-5-yl)methyl)ethan-1-amine]: the half-inhibitory concentration (IC50) in assay [1] and in assay [2] was < 200 nM in each case. In assay [3], the EC50 fell in the range of 200 to 1000 nM.
Consider `COc1cc(CNC2CCC2)cc2nc(-c3cccc(-c4ccc(F)cc4-c4nncn4C)c3)oc12` [GH-1, N-((2-(4′-Fluoro-2′-(4-methyl-4H-1,2,4-triazol-3-yl)-[1,1′-biphenyl]-3-yl)-7-methoxybenzo[d]oxazol-5-yl)methyl)cyclobutanamine], for which the half-inhibitory concentration (IC50) was 200 to 1000 nM in assay [1] and < 200 nM in assay [2]. Moreover, in assay [3], the EC50 fell in the range of 200 to 1000 nM.
For the compound `COc1cc(CN[C@@H]2CCC[C@]2(C)O)cc2nc(-c3cccc(-c4ccc(F)cc4-c4nncn4C)c3)oc12` [GI-2, (1S,2R)-2-(((2-(4′-Fluoro-2′-(4-methyl-4H-1,2,4-triazol-3-yl)-[1,1′-biphenyl]-3-yl)-7-methoxybenzo[d]oxazol-5-yl)methyl)amino)-1-methylcyclopentan-1-ol, Formic Acid], the 50% inhibitory concentration (IC50) in assay [1] and in assay [2] was 200 to 1000 nM in each case. Also, in assay [3], the concentration for a half-maximal effect (EC50) was in the range of 1000 to 10000 nM.
Consider `COc1cc(CN[C@@H]2CCC[C@@]2(C)O)cc2nc(-c3cccc(-c4ccc(F)cc4-c4nncn4C)c3)oc12` [GJ-2, (1R,2R)-2-(((2-(4′-fluoro-2′-(4-methyl-4H-1,2,4-triazol-3-yl)-[1,1′-biphenyl]-3-yl)-7-methoxybenzo[d]oxazol-5-yl)methyl)amino)-1-methylcyclopentan-1-ol, Formic Acid], for which the IC50 in assay [1] and in assay [2] was 200 to 1000 nM throughout. Further, the EC50 in assay [3] fell in the range of 1000 to 10000 nM.
As for `Cn1cnnc1-c1cc(F)ccc1-c1cccc(-c2nc3ccc(CN[C@@H]4CCC[C@@H]4O)cn3n2)c1` [GK-5, (1S,2R)-2-(((2-(4′-Fluoro-2′-(4-methyl-4H-1,2,4-triazol-3-yl)-[1,1′-biphenyl]-3-yl)-[1,2,4]triazolo[1,5-a]pyridin-6-yl)methyl)amino)cyclopentan-1-ol, Formic Acid], the IC50 is 200 to 1000 nM in assay [1] and < 200 nM in assay [2]. Moreover, in assay [3], the EC50 lay in the range of 1000 to 10000 nM.
With `Cn1cnnc1-c1cc(F)ccc1-c1cccc(-c2cn3cc(CN[C@@H]4CCC[C@@H]4O)ccc3n2)c1` [GL-2, (1S,2R)-2-(((2-(4′-fluoro-2′-(4-methyl-4H-1,2,4-triazol-3-yl)-[1,1′-biphenyl]-3-yl)imidazo[1,2-a]pyridin-6-yl)methyl)amino)cyclopentan-1-ol], the 50% inhibitory concentration (IC50) in assay [1] and in assay [2] was 1000 to 10000 nM each time. Also, the concentration giving a half-maximal response (EC50) in assay [3] fell in the range of 10000 to 50000 nM.
In the case of `COCCN(C)Cc1cc(OC)c2oc(-c3cccc(-c4ccc(F)cc4-c4nncn4C)c3)nc2c1` [GM-2, N-((2-(4′-Fluoro-2′-(4-methyl-4H-1,2,4-triazol-3-yl)-[1,1′-biphenyl]-3-yl)-7-methoxybenzo[d]oxazol-5-yl)methyl)-2-methoxy-N-methylethan-1-amine], the values for the IC50 in assay [1] and in assay [2] were 1000 to 10000 nM and 200 to 1000 nM, respectively. The EC50 in assay [3] was 10000 to 50000 nM.
Taken in the same sequence, the figures for `Cn1cnnc1-c1cc(F)ccc1-c1cccc(-c2cn3ccc(CO)cc3n2)c1` [GN-5, (2-(4′-Fluoro-2′-(4-methyl-4H-1,2,4-triazol-3-yl)-[1,1′-biphenyl]-3-yl)imidazo[1,2-a]pyridin-7-yl)methanol] were 10000 to 50000 nM, 10000 to 50000 nM and 10000 to 50000 nM.
The like results for `Cn1cnnc1-c1cc(F)ccc1-c1cccc(-c2cn3ccc(CN[C@@H]4CCC[C@@H]4O)cc3n2)c1` [GO-2, (1S,2R)-2-(((2-(4′-Fluoro-2′-(4-methyl-4H-1,2,4-triazol-3-yl)-[1,1′-biphenyl]-3-yl)imidazo[1,2-a]pyridin-7-yl)methyl)amino)cyclopentan-1-ol] were, in that order, < 200 nM, < 200 nM and 200 to 1000 nM.
Regarding `Cn1cnnc1-c1cc(F)ccc1-c1cccc(-c2nc3cc(CN[C@@H]4C[C@H](O)C4(C)C)cc(C(F)(F)F)c3o2)c1` [GP-2, (1S,3R)-3-(((2-(4′-Fluoro-2′-(4-methyl-4H-1,2,4-triazol-3-yl)-[1,1′-biphenyl]-3-yl)-7-(trifluoromethyl)benzo[d]oxazol-5-yl)methyl)amino)-2,2-dimethylcyclobutan-1-ol, Formic Acid], the IC50 in assay [1] and in assay [2] was < 200 nM in each case. Further, the half-maximal effective concentration (EC50) in assay [3] lay within 200 to 1000 nM.
Turning to `Cc1cc(CNCC2CCC2)cc2nc(-c3cccc(-c4ccc(F)cc4-c4nncn4C)c3)oc12` [GU-1, 1-Cyclobutyl-N-((2-(4′-fluoro-2′-(4-methyl-4H-1,2,4-triazol-3-yl)-[1,1′-biphenyl]-3-yl)-7-methylbenzo[d]oxazol-5-yl)methyl)methanamine], the IC50 in assay [1] and in assay [2] was < 200 nM throughout. Moreover, in assay [3], the EC50 is < 200 nM.
`COCCNCc1cc(C)c2oc(-c3cccc(-c4ccc(F)cc4-c4nncn4C)c3)nc2c1` [GV-1, N-((2-(4′-Fluoro-2′-(4-methyl-4H-1,2,4-triazol-3-yl)-[1,1′-biphenyl]-3-yl)-7-methylbenzo[d]oxazol-5-yl)methyl)-2-methoxyethan-1-amine]: the figures for the IC50 in assay [1] and in assay [2] were 200 to 1000 nM and < 200 nM, respectively. The EC50 in assay [3] is 200 to 1000 nM.
For `C[C@H](NCc1cc(C(F)(F)F)c2oc(-c3cccc(-c4ccc(F)cc4-c4nncn4C)c3)nc2c1)C1CCC1` [GW-2, (S)-1-Cyclobutyl-N-((2-(4′-fluoro-2′-(4-methyl-4H-1,2,4-triazol-3-yl)-[1,1′-biphenyl]-3-yl)-7-(trifluoromethyl)benzo[d]oxazol-5-yl)methyl)ethan-1-amine], the concentration for half-maximal inhibition (IC50) in assay [1] and in assay [2] was < 200 nM each time. Also, the 50% effective concentration (EC50) in assay [3] is < 200 nM.
`COc1cc(CN[C@H]2C[C@@H](O)C2)cc2nc(-c3cccc(-c4ccc(F)cc4-c4nncn4C)c3)oc12` [GX-1, (1S,3S)-3-(((2-(4′-Fluoro-2′-(4-methyl-4H-1,2,4-triazol-3-yl)-[1,1′-biphenyl]-3-yl)-7-methoxybenzo[d]oxazol-5-yl)methyl)amino)cyclobutan-1-ol]: the results for the 50% inhibitory concentration (IC50) in assay [1] and in assay [2] were 200 to 1000 nM and < 200 nM, respectively. The half-maximal effective concentration (EC50) in assay [3] fell in the range of 1000 to 10000 nM.
Taken in the same sequence, the figures for `COc1cc(CN[C@H]2C[C@H](O)C2)cc2nc(-c3cccc(-c4ccc(F)cc4-c4nncn4C)c3)oc12` [GY-1, (1R,3R)-3-(((2-(4′-Fluoro-2′-(4-methyl-4H-1,2,4-triazol-3-yl)-[1,1′-biphenyl]-3-yl)-7-methoxybenzo[d]oxazol-5-yl)methyl)amino)cyclobutan-1-ol] were 1000 to 10000 nM, 200 to 1000 nM and 10000 to 50000 nM.
As for `COc1cc(CNCC2COC2)cc2nc(-c3cccc(-c4ccc(F)cc4-c4nncn4C)c3)oc12` [GZ-1, 1-(2-(4′-Fluoro-2′-(4-methyl-4H-1,2,4-triazol-3-yl)-[1,1′-biphenyl]-3-yl)-7-methoxybenzo[d]oxazol-5-yl)-N-(oxetan-3-ylmethyl)methanamine], the IC50 in assay [1] was 200 to 1000 nM; in assay [2] it was < 200 nM. In addition, the EC50 in assay [3] lay in the range of 200 to 1000 nM.
For `[2H]C([2H])(N[C@@H]1CCC[C@@H]1O)c1cc(C(F)(F)F)c2oc(-c3cccc(-c4ccc(F)cc4-c4nncn4C)c3)nc2c1` [HA-3, (1S,2R)-2-(((2-(4′-Fluoro-2′-(4-methyl-4H-1,2,4-triazol-3-yl)-[1,1′-biphenyl]-3-yl)-7-(trifluoromethyl)benzo[d]oxazol-5-yl)methyl-d2)amino)cyclopentan-1-ol], the 50% inhibitory concentration (IC50) in assay [1] and in assay [2] was < 200 nM throughout. Moreover, in assay [3], the EC50 is < 200 nM.
In the case of `[2H]C([2H])(NCC1(O)CCC1)c1cc(C(F)(F)F)c2oc(-c3cccc(-c4ccc(F)cc4-c4nncn4C)c3)nc2c1` [HB-1, 1-((((2-(4′-Fluoro-2′-(4-methyl-4H-1,2,4-triazol-3-yl)-[1,1′-biphenyl]-3-yl)-7-(trifluoromethyl)benzo[d]oxazol-5-yl)methyl-d2)amino)methyl)cyclobutan-1-ol], the half-inhibitory concentration (IC50) in assay [1] and in assay [2] was < 200 nM throughout. Also, the EC50 in assay [3] was < 200 nM.

What is called IC50 is the concentration needed to halve the response being measured. The EC50 is the concentration needed to bring the measured effect to its halfway point.
